The values below come from ChEMBL document CHEMBL1201862, “PubChem BioAssay data set” (2004).

Some test systems named below: CCRF-CEM; HCC 2998; SK-MEL-28; MDA-MB-435; SNB-19; IGROV-1; NCI/ADR-RES; MCF7; A549; EKVX; M14; TK-10; NCI-H522; U-251; MDA-N; LOX IMVI; SNB-75; MOLT-4; HL-60; OVCAR-4.
Holding throughout (test): NCI anticancer screen, dose series, 48 h

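Test compounds were applied to cells in 96-well plates for 48 hours at 5 doses. GI50 is the concentration that inhibits growth by half.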 Calls of active or inactive are those of the source. Cut-off read from the data, not from the text of the source: active = GI50 up to about 1.1 µM and inactive = higher.

As for `CCOC(=O)NN(C(=O)OCC)C(C(=O)c1ccccc1)N(NC(=O)OCC)C(=O)OCC`, the GI50 in the test on CCRF-CEM, in the test on HCC 2998, with SK-MEL-28, with MDA-MB-435, in the test on SNB-19 and with IGROV-1 was > 100 µM (inactive) in each case. The GI50 in the test with NCI/ADR-RES, with MCF7, in the test on A549, in the test with EKVX, in the test on M14 and in the test with TK-10 was > 100 µM (inactive) in each case. For the same compound, the GI50 with NCI-H522, in the test with U-251, in the test with MDA-N, in the test with LOX IMVI, with SNB-75 and in the test with MOLT-4 was > 100 µM (inactive) each time. In addition, the GI50 in the test on HL-60 and in the test on OVCAR-4 was > 100 µM (inactive) each time.

Take `COc1ccc2c(c1)nc1n2C(N)=Nc2ccccc2S1`: the GI50 is 2.55 µM (inactive) with CCRF-CEM; 31.8 µM (inactive) in the test with HCC 2998; > 80.5 µM (inactive) in the test with SK-MEL-28; 32.4 µM (inactive) in the test on MDA-MB-435; 39.3 µM (inactive) in the test on SNB-19; 3.75 µM (inactive) in the test on IGROV-1. The GI50 is 35.2 µM (inactive) in the test with NCI/ADR-RES; 11.3 µM (inactive) in the test on MCF7; 29.7 µM (inactive) in the test on A549; 28.5 µM (inactive) with EKVX; 10.6 µM (inactive) in the test with M14; > 100 µM (inactive) in the test with TK-10. Besides, the GI50 in the test on NCI-H522 was 16.6 µM (inactive); in the test on U-251, 18.8 µM (inactive); with MDA-N it was 16.9 µM (inactive); with LOX IMVI it was 11.8 µM (inactive); in the test on SNB-75, > 42.9 µM (inactive); in the test with MOLT-4, 3.69 µM (inactive). Besides, the GI50 in the test with HL-60 is 2.64 µM (inactive); in the test with OVCAR-4 it was 34.4 µM (inactive).

With `CC(C)(C)CC(C)(C)N/C(N)=N/O`, the GI50 in the test on CCRF-CEM is > 100 µM (inactive); with HCC 2998, > 100 µM (inactive); in the test with SK-MEL-28 it was > 100 µM (inactive); in the test on MDA-MB-435, > 100 µM (inactive); in the test on SNB-19, > 100 µM (inactive); with IGROV-1, > 86.7 µM (inactive). The GI50 was 97.3 µM (inactive) in the test with NCI/ADR-RES; 8.79 µM (inactive) in the test on MCF7; > 100 µM (inactive) in the test on A549; > 89.5 µM (inactive) with EKVX; > 100 µM (inactive) in the test with M14; > 48.5 µM (inactive) in the test with TK-10. For the same compound, the GI50 was > 100 µM (inactive) in the test on NCI-H522; > 100 µM (inactive) with U-251; > 100 µM (inactive) in the test on MDA-N; > 100 µM (inactive) with LOX IMVI; > 86.5 µM (inactive) with SNB-75; > 100 µM (inactive) with MOLT-4. For the same compound, the GI50 with HL-60 was > 55.7 µM (inactive); with OVCAR-4 it was > 37.4 µM (inactive).

Consider `CN(C)c1nc(N)c(C#N)c(C#N)c1C#N`, for which the GI50 with CCRF-CEM is 3.08 µM (inactive); with HCC 2998, > 10 µM (inactive); in the test on SK-MEL-28, > 10 µM (inactive); in the test on MDA-MB-435, > 10 µM (inactive); in the test on SNB-19 it was > 10 µM (inactive); in the test on IGROV-1 it was > 6 µM (inactive). Moreover, the GI50 in the test on NCI/ADR-RES, with MCF7, with A549, in the test on EKVX, in the test with M14 and in the test on TK-10 was > 10 µM (inactive) each time. The GI50 with NCI-H522 is 1.87 µM (inactive); in the test with U-251 it was > 10 µM (inactive); in the test with MDA-N, > 10 µM (inactive); in the test with LOX IMVI, > 10 µM (inactive); in the test with SNB-75, 9.68 µM (inactive); in the test with MOLT-4, 3.28 µM (inactive). Besides, the GI50 with HL-60 was 2.21 µM (inactive); with OVCAR-4, > 10 µM (inactive).

As for `C/C1=C\CC[C@@]2(C)O[C@@H]2C[C@@H]2[C@H](C/C(C)=C/CC1)OC(=O)[C@]21CO1`, the GI50 in the test with CCRF-CEM is 46.2 µM (inactive); in the test with HCC 2998, 78.9 µM (inactive); with SK-MEL-28 it was > 100 µM (inactive); in the test with MDA-MB-435, 65.8 µM (inactive); in the test on SNB-19, > 100 µM (inactive); in the test on IGROV-1, 42.2 µM (inactive). The GI50 was > 100 µM (inactive) in the test with NCI/ADR-RES; 41.5 µM (inactive) in the test with MCF7; 65.2 µM (inactive) in the test on A549; > 100 µM (inactive) in the test on EKVX; > 100 µM (inactive) in the test with M14; > 100 µM (inactive) in the test with TK-10. Also, the GI50 is 32.5 µM (inactive) in the test on NCI-H522; 63.8 µM (inactive) in the test with U-251; 61.1 µM (inactive) in the test with MDA-N; 19.6 µM (inactive) in the test on LOX IMVI; > 100 µM (inactive) in the test with SNB-75; 22 µM (inactive) in the test on MOLT-4. Moreover, the GI50 with HL-60 and in the test with OVCAR-4 was > 100 µM (inactive) each time.

As to `O=C1Nc2ccccc2/C1=N/Nc1nc(-c2cccc([N+](=O)[O-])c2)cs1`, the GI50 was 32.8 µM (inactive) in the test on CCRF-CEM; 18.1 µM (inactive) with HCC 2998; 19.5 µM (inactive) with SK-MEL-28; 34.4 µM (inactive) with MDA-MB-435; 26.7 µM (inactive) with SNB-19; 21.6 µM (inactive) with IGROV-1. For the same compound, the GI50 is 15.3 µM (inactive) with NCI/ADR-RES; 23.9 µM (inactive) with MCF7; 20.1 µM (inactive) in the test on A549; 22.5 µM (inactive) in the test with EKVX; 34.1 µM (inactive) with M14; 19 µM (inactive) in the test on TK-10. Also, the GI50 with NCI-H522 was 20.1 µM (inactive); in the test on U-251, 21.4 µM (inactive); in the test with MDA-N, 31.1 µM (inactive); in the test with LOX IMVI it was 20.7 µM (inactive); in the test on SNB-75, 20.3 µM (inactive); in the test with MOLT-4, 31.5 µM (inactive). Moreover, the GI50 in the test with HL-60 was 25.1 µM (inactive); in the test with OVCAR-4, 21 µM (inactive).

For the compound `COc1cc(C(O)c2ccc3c(c2)OCO3)cc(OC)c1OC` (stereo not given), the GI50 in the test with CCRF-CEM is > 100 µM (inactive); with HCC 2998, > 100 µM (inactive); in the test on SK-MEL-28 it was > 100 µM (inactive); in the test with MDA-MB-435, 70 µM (inactive); in the test with SNB-19, > 100 µM (inactive); in the test on IGROV-1, > 100 µM (inactive). Further, the GI50 with NCI/ADR-RES, with MCF7, in the test on A549, in the test on EKVX, in the test on M14 and in the test with TK-10 was > 100 µM (inactive) each time. Besides, the GI50 with NCI-H522 was > 100 µM (inactive); with U-251, > 100 µM (inactive); in the test with MDA-N, > 100 µM (inactive); in the test on LOX IMVI, > 100 µM (inactive); in the test on SNB-75, 73.5 µM (inactive); in the test on MOLT-4, > 100 µM (inactive). Besides, the GI50 in the test with HL-60 and with OVCAR-4 was > 100 µM (inactive) each time.

In the case of `CS(=O)(=O)OCCCCOS(C)(=O)=O` [BUSULFAN], the GI50 with CCRF-CEM is 145 µM (inactive); with HCC 2998, 183 µM (inactive); in the test with SK-MEL-28 it was 203 µM (inactive); in the test with MDA-MB-435 it was > 1000 µM (inactive); in the test on SNB-19 it was 222 µM (inactive); with IGROV-1, > 212 µM (inactive). Also, the GI50 is 217 µM (inactive) in the test with NCI/ADR-RES; 213 µM (inactive) with MCF7; 208 µM (inactive) in the test on A549; > 201 µM (inactive) with EKVX; 236 µM (inactive) in the test with M14; > 250 µM (inactive) in the test with TK-10. Further, the GI50 was 239 µM (inactive) in the test on NCI-H522; 234 µM (inactive) in the test on U-251; 209 µM (inactive) with MDA-N; 221 µM (inactive) in the test with LOX IMVI; 144 µM (inactive) in the test with SNB-75; 124 µM (inactive) in the test on MOLT-4. The GI50 in the test with HL-60 is 125 µM (inactive); with OVCAR-4 it was 214 µM (inactive).

In the case of `COc1cc2c(cc1O)Cc1c-2[n+](C)cc2cc(OC)c(OC)cc12`, the GI50 is 0.407 µM (active) in the test with CCRF-CEM; > 100 µM (inactive) in the test with HCC 2998; > 89.9 µM (inactive) in the test on SK-MEL-28; 36 µM (inactive) with MDA-MB-435; 1.64 µM (inactive) in the test with SNB-19; 52.7 µM (inactive) in the test on IGROV-1. The GI50 in the test on NCI/ADR-RES was 6.79 µM (inactive); with MCF7, 15.2 µM (inactive); in the test with A549 it was 38 µM (inactive); in the test with EKVX it was > 90.8 µM (inactive); in the test with M14 it was 7.19 µM (inactive); in the test with TK-10, > 88.1 µM (inactive). In addition, the GI50 with NCI-H522 was 0.49 µM (active); with U-251 it was 2.01 µM (inactive); in the test on MDA-N, 34.9 µM (inactive); in the test on LOX IMVI it was 5.94 µM (inactive); in the test on SNB-75, 63.2 µM (inactive); in the test on MOLT-4, 0.653 µM (active). Moreover, the GI50 is 2.75 µM (inactive) with HL-60 and > 63.2 µM (inactive) with OVCAR-4.

For the compound `O=P(O)(O)CN1CCNCCN(CP(=O)(O)O)CCNCC1`, the GI50 in the test on CCRF-CEM is 3.52 µM (inactive); in the test on HCC 2998 it was 7.64 µM (inactive); in the test on SK-MEL-28, > 100 µM (inactive); in the test on MDA-MB-435, 12 µM (inactive); in the test with SNB-19, > 100 µM (inactive); in the test on IGROV-1, 6.52 µM (inactive). The GI50 is 35.2 µM (inactive) in the test with NCI/ADR-RES; 6.97 µM (inactive) with MCF7; 8.22 µM (inactive) in the test with A549; > 95.9 µM (inactive) in the test with EKVX; 26.1 µM (inactive) in the test on M14; > 62.2 µM (inactive) in the test with TK-10. In addition, the GI50 is 9.38 µM (inactive) with NCI-H522; > 24.4 µM (inactive) in the test on U-251; 13.5 µM (inactive) in the test with MDA-N; 15.7 µM (inactive) in the test with LOX IMVI; > 51.6 µM (inactive) in the test with SNB-75; 4.66 µM (inactive) in the test on MOLT-4. Moreover, the GI50 was 2.79 µM (inactive) in the test with HL-60 and > 71.3 µM (inactive) in the test on OVCAR-4.
